# Test results reported in article PMC9463526 (Journal of Pharmaceutical Analysis, 2022).
# Read-outs that look alike come from different tables or passages of the source.
# Key:
# [1] = Equilibrium dialysis, fraction unbound in patient brain tumor tissue; format: in vitro ADME; details: human, five patients, 16 h equilibrium dialysis
# Method: (§1) Equilibrium dialysis was employed to measure the fraction unbound of analytes in plasma, brain, and brain tumor tissue homogenates using 96-well DispoEquilibrium Dialyzer plates with a 10 kDa cut-off regenerated cellulose membrane. Dialysis was performed using 180 μL of human plasma or tissue homogenate against an equal volume of PBS (pH 7.4) in a dual-plate rotator (Harvard Apparatus, Holliston, MA, USA). Equilibrium time was initially optimized by analyzing samples after 2, 4, 6, 8, 16, and 24 h of dialysis at concentrations of 20 and 200 nM in human plasma and brain homogenate. The dialysates were collected and processed as described in Sections 2.3.2 and 2.3.3. The recovery of analytes was calculated as the ratio of analyte concentration after dialysis (sum of concentrations found in PBS and matrix fractions) to the total concentration to ensure the reliability and reproducibility of the assay. The experiments were repeated at least three times, and each sample in triplicate and average fraction unbound values were determined.
# (§2) The fraction unbound in plasma (fu, plasma) and tissue homogenate (fu, hom) was evaluated as the analyte concentration ratio of post-dialysis PBS (cu) to post-dialysis plasma (cp, Eq. (1)) or homogenate (chom, Eq. (2)).(1) fu,plasma =cu/cp (2) fu,hom =cu/chom
# (§3) The fraction unbound in the actual tissue (fu, tissue) was obtained by incorporating the unbound fraction in the tissue homogenate (fu, hom) and the dilution factor (Df) into Eq. (3).(3) fu,tissue = fu,hom/[Df - (Df - 1)fu,hom]
# (§4) Unbound drug levels in the actual plasma and brain tumor tissue were measured using dialysis for 16 h to reach equilibrium. The mean of fraction unbound values determined in five patient samples was calculated.
# The validated bioanalytical method was employed to investigate analytes pharmacokinetics in the plasma, brain tumor, and CSF in GBM patients (ClinicalTrials.gov identifier: NCT04391595). The protocol was reviewed and approved by the Institutional Review Board of the Barrow Neurological Institute, St. Joseph's Hospital and Medical Center (Phoenix, AZ, USA). All patients enrolled in the trial provided written informed consent. […] Blood, CSF, and GBM tissue (including gadolinium-contrast enhancing and non-enhancing regions) samples were obtained intra-operatively from each patient on the […] on the planned operation day. Blood was centrifuged at 4 °C and 3,000 r/min for 10 min; plasma was subsequently collected. Brain tumors were resected 7–9 h after the last dose was administered. Once resected, the tissue samples were rinsed with PBS, paper dried, and freshly frozen in liquid nitrogen. The samples were then stored at −80 °C in a freezer for later analysis.
# [2] = Equilibrium dialysis, fraction unbound in plasma; format: in vitro ADME, human; details: pH 7.4, 16 h equilibrium dialysis
# Method: as §1, §2, §4
# [3] = design: method as in investigational brochures; details: ref investigational brochures; cited from earlier work
# [4] = Analyte stability in brain homogenate; format: physicochemical, human; details: for Freeze-thaw stability, Accuracy / Freeze-thaw stability, Difference: 3 cycles; for Freeze-thaw stability, Difference / Benchtop stability, Difference / Processed sample stability, Difference / Autosampler stability (5 °C), Difference / Long-term stability (−20 °C), Difference: vs freshly processed QC; for Benchtop stability, Accuracy / Benchtop stability, Difference: 6 h; for Processed sample stability, Accuracy / Processed sample stability, Difference: 22 h; for Autosampler stability (5 °C), Accuracy / Autosampler stability (5 °C), Difference: 96 h; for Long-term stability (−20 °C), Difference: 39 days
# Method: The stability of the analytes was studied under various storage and processing conditions. […] Short- and long-term stability studies of all analytes were conducted in human blank plasma and brain homogenate under several storage conditions. Analyte stability in biological matrices was analyzed using freshly prepared calibration standards and QC samples. The percentage difference between the stability and freshly processed QC was also assessed. Re-injection reproducibility was evaluated within the sample stability period in the autosampler. Analytes were considered stable if the accuracy at each level was ±15.0% of the nominal value. Additionally, the difference from corresponding comparison QC samples must be within ±15.0%.
# [5] = cited from earlier work
# [6] = mouse; cited from earlier work
# [7] = cited from earlier work; remark: listed apart in the source
# [8] = Equilibrium dialysis, fraction unbound in brain homogenate; format: in vitro ADME, human; details: pH 7.4; human brain homogenate spiked at 20 and 200 nM; 16 h equilibrium dialysis; read-out: Fraction unbound (fu), Brain
# Method: as §1, §2, §3
# [9] = rat; cited from earlier work
smiles,measurement,setting,value
CCN1CCN(Cc2ccc(Nc3ncc(F)c(-c4cc(F)c5nc(C)n(C(C)C)c5c4)n3)nc2)CC1 [Abemaciclib],fraction unbound at 16 h,"[1]; pH 7.4, gadolinium contrast enhancing GBM region, read-out: Fraction unbound (fu), GBM (E)",0.014
same,fraction unbound at 16 h,"[1]; pH 7.4, gadolinium contrast non-enhancing GBM region, read-out: Fraction unbound (fu), GBM (NE)",0.011
same,fraction unbound at 16 h,"[2]; human, plasma of five GBM patients, read-out: Fraction unbound (fu), Plasma (patients)",0.026
same,fraction unbound at 16 h,"[2]; pooled human plasma spiked at 20 and 200 nM, read-out: Fraction unbound (fu), Plasma (pooled)",0.026
same,pKa (strongest basic),[3],7.95
same,"Freeze-thaw stability, Accuracy",[4]; HQC 400.0 nM,106.8%
same,"Freeze-thaw stability, Difference",[4]; HQC 400.0 nM,−3.2%
same,"Freeze-thaw stability, Accuracy",[4]; LQC 0.6 nM,104.4%
same,"Freeze-thaw stability, Difference",[4]; LQC 0.6 nM,−5.7%
same,"Benchtop stability, Accuracy",[4]; HQC 400.0 nM,97.3%
same,"Benchtop stability, Difference",[4]; HQC 400.0 nM,−3.7%
same,"Benchtop stability, Accuracy",[4]; LQC 0.6 nM,108.3%
same,"Benchtop stability, Difference",[4]; LQC 0.6 nM,6.7%
same,"Processed sample stability, Accuracy",[4]; HQC 400.0 nM,99.6%
same,"Processed sample stability, Difference",[4]; HQC 400.0 nM,−1.4%
same,"Processed sample stability, Accuracy",[4]; LQC 0.6 nM,104.5%
same,"Processed sample stability, Difference",[4]; LQC 0.6 nM,3.0%
same,"Autosampler stability (5 °C), Accuracy",[4]; HQC 400.0 nM,102.8%
same,"Autosampler stability (5 °C), Difference",[4]; HQC 400.0 nM,3.3%
same,"Autosampler stability (5 °C), Accuracy",[4]; LQC 0.6 nM,108.3%
same,"Autosampler stability (5 °C), Difference",[4]; LQC 0.6 nM,13.8%
same,"Long-term stability (−20 °C), Difference",[4]; HQC 400.0 nM,−1.5%
same,"Long-term stability (−20 °C), Difference",[4]; LQC 0.6 nM,−6.9%
same,"Distribution (LogD, pH7.4), experimentally measured (value in parenthesis)",[5]; pH 7.4,2.70
same,"Lipophilicity, experimentally measured (value in parenthesis)",[5]; ref [12],3.36
same,"fu, brain",[6],0.0079
same,"fu, plasma (previously published)",[7],0.027
same,fraction unbound at 16 h,[8],0.013
same,"fu, brain",[9],0.0043
